Measured values from patent US8613914B2, “Peptidomimetic sulfamide compounds and antiviral uses thereof” (Novartis AG, priority 2009, dated 2013).

Target: HCV NS3-4A serine protease (full-length NS3-4A protein) (Hepatitis C virus genotype 1a (isolate 1) (HCV), UniProt P26664)
Assay: HCV NS3-4A protease assay
Format: biochemical, HCV genotype 1a
Conditions: strain HCV-1, fluorogenic peptide substrate, read-out: Protease assay Ex. 12 IC50
Method: The inhibitory activity of certain compounds of Table A against HCV NS3-4A serine protease is determined in a homogenous assay using the full-length NS3-4A protein (genotype 1a, strain HCV-1) and a commercially available internally-quenched fluorogenic peptide substrate as described by Taliani, M., et al. 1996 Anal. Biochem. 240:60-67, which is incorporated by reference in its entirety.

Sequence of HCV NS3-4A serine protease (full-length NS3-4A protein) (P26664 1027-1657): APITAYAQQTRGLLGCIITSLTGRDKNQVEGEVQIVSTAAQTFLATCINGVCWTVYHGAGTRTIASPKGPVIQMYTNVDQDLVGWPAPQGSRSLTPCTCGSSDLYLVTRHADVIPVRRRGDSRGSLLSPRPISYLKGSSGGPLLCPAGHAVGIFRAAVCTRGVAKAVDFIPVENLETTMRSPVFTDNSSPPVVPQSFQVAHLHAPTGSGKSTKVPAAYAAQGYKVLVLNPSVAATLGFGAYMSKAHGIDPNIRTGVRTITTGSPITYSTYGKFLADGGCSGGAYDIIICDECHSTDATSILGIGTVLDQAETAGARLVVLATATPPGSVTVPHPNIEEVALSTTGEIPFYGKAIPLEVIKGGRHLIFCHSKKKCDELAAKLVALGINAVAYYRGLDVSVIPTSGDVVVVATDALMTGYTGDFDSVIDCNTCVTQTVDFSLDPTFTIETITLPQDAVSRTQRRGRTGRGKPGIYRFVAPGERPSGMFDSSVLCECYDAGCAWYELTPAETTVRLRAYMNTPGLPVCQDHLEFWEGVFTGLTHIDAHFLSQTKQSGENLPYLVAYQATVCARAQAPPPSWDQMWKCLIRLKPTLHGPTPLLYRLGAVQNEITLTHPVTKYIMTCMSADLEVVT
Sequence of HCV NS3-4A serine protease (full-length NS3-4A protein) (P26664 1658-1711 partner): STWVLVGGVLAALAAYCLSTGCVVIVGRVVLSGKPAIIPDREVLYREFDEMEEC

| Compound | IC50 [nM] |
| --- | --- |
| C=C[C@@H]1C[C@]1(NC(=O)[C@@H]1C[C@@]2(CN1C(=O)[C@@H](NC(=O)[C@@H](NC(=O)[C@@H]1CCCN1C(C)C)C1CCCCC1)C(C)(C)C)C(C)(C)C21CCC1)C(=O)NS(=O)(=O)N(C)CC [Compound 91, (5R,8S)-7-[(2S)-2-{[(2S)-2-cyclohexyl-2-({[(2S)-1-isopropylpyrrolidin-2-yl]carbonyl}amino)acetyl]amino}-3,3-dimethylbutanoyl]-N-[(1R,2S)-1-({[ethyl(methyl)amino]sulfonyl}carbamoyl)-2-vinylcyclopropyl]-10,10-dimethyl-7-azadispiro[3.0.4.1]decane-8-carboxamide] | 5 |
| C=C[C@@H]1C[C@]1(NC(=O)[C@@H]1C[C@@]2(CN1C(=O)[C@@H](NC(=O)[C@@H](NC(=O)[C@@H]1CCN1C(C)C)C(C)(C)C)C(C)(C)C)C(C)(C)C21CCC1)C(=O)NS(=O)(=O)N1CCCC1 [Compound 12, (5R,8S)-7-[(2S)-2-{[(2S)-2-({[(2S)-1-isopropylazetidin-2-yl]carbonyl}amino)-3,3-dimethylbutanoyl]amino}-3,3-dimethylbutanoyl]-10,10-dimethyl-N-{(1R,2S)-1-[(pyrrolidin-1-ylsulfonyl)carbamoyl]-2-vinylcyclopropyl}-7-azadispiro[3.0.4.1]decane-8-carboxamide] | 40 |
| C=C[C@@H]1C[C@]1(NC(=O)[C@@H]1C[C@@]2(CN1C(=O)[C@@H](NC(=O)[C@@H](NC(=O)c1ccc3c(ccn3C)c1)C1CCCCC1)C(C)(C)C)C(C)(C)C21CCC1)C(=O)NS(=O)(=O)N1CCCC1 [Compound 198, (5R,8S)-7-{(2S)-2-[(cyclohexyl{[(1-methyl-1H-indol-5-yl)carbonyl]amino}acetyl)amino]-3,3-dimethylbutanoyl}-10,10-dimethyl-N-{(1R,2S)-1-[(pyrrolidin-1-ylsulfonyl)carbamoyl]-2-vinylcyclopropyl}-7-azadispiro[3.0.4.1]decane-8-carboxamide] | 40 |
| C=C[C@@H]1C[C@]1(NC(=O)[C@@H]1C[C@@]2(CN1C(=O)[C@@H](NC(=O)[C@@H](NC(=O)[C@@H]1CCCCN1CC)C1CCCC1)C(C)(C)C)C(C)(C)C21CCC1)C(=O)NS(=O)(=O)N(CC)CC [Compound 81, (5R,8S)-7-[(2S)-2-{[(2S)-2-cyclopentyl-2-({[(2S)-1-ethylpiperidin-2-yl]carbonyl}amino)acetyl]amino}-3,3-dimethylbutanoyl]-N-[(1R,2S)-1-{[(diethylamino)sulfonyl]carbamoyl}-2-vinylcyclopropyl]-10,10-dimethyl-7-azadispiro[3.0.4.1]decane-8-carboxamide] | 4 |
| C=C[C@@H]1C[C@]1(NC(=O)[C@@H]1C[C@@]2(CN1C(=O)[C@@H](NC(=O)[C@@H](NC(=O)c1cnccn1)C1CCCCC1)C(C)(C)C)C(C)(C)C21CCC1)C(=O)NS(=O)(=O)NC1CC1 [Compound 165, (5R,8S)-7-[(2S)-2-({(2S)-2-cyclohexyl-2-[(pyrazin-2-ylcarbonyl)amino]acetyl}amino)-3,3-dimethylbutanoyl]-N-[(1R,2S)-1-{[(cyclopropylamino)sulfonyl]carbamoyl}-2-vinylcyclopropyl]-10,10-dimethyl-7-azadispiro[3.0.4.1]decane-8-carboxamide] | 6.2 |
| C=C[C@@H]1C[C@]1(NC(=O)[C@@H]1C[C@@]2(CN1C(=O)[C@@H](NC(=O)[C@@H](NC(=O)[C@@H]1CCCCN1C(C)C)C1CCCCC1)C(C)(C)C)C(C)(C)C21CCC1)C(=O)NS(=O)(=O)N(C)CCOC [Compound 56, (5R,8S)-7-[(2S)-2-{[(2S)-2-cyclohexyl-2-({[(2S)-1-isopropylpiperidin-2-yl]carbonyl}amino)acetyl]amino}-3,3-dimethylbutanoyl]-N-[(1R,2S)-1-({[(2-methoxyethyl)(methyl)amino]sulfonyl}carbamoyl)-2-vinylcyclopropyl]-10,10-dimethyl-7-azadispiro[3.0.4.1]decane-8-carboxamide] | 8 |
| C=C[C@@H]1C[C@]1(NC(=O)[C@@H]1C[C@@]2(CN1C(=O)[C@@H](NC(=O)[C@@H](NC(=O)[C@@H]1CCCN1C(=O)OCCF)C1CCCCC1)C1CCOCC1)C(C)(C)C21CCC1)C(=O)NS(=O)(=O)N1CCCC1 [Compound 76, 2-fluoroethyl(2S)-2-{[(1S)-1-cyclohexyl-2-{[(1S)-2-[(5R,8S)-10,10-dimethyl-8-({(1R,2S)-1-[(pyrrolidin-1-ylsulfonyl)carbamoyl]-2-vinylcyclopropyl}carbamoyl)-7-azadispiro[3.0.4.1]dec-7-yl]-2-oxo-1-(tetrahydro-2H-pyran-4-yl)ethyl]amino}-2-oxoethyl]carbamoyl}pyrrolidine-1-carboxylate] | 80 |
| C=C[C@@H]1C[C@]1(NC(=O)[C@@H]1C[C@@]2(CN1C(=O)[C@@H](NC(=O)[C@@H](NC(=O)[C@@H]1CCCCN1CCOC)C1CCCCC1)C(C)(C)C)C(C)(C)C21CCC1)C(=O)NS(=O)(=O)N1CCCC1 [Compound 33, (5R,8S)-7-[(2S)-2-{[(2S)-2-cyclohexyl-2-({[(2S)-1-(2-methoxyethyl)piperidin-2-yl]carbonyl}amino)acetyl]amino}-3,3-dimethylbutanoyl]-10,10-dimethyl-N-{(1R,2S)-1-[(pyrrolidin-1-ylsulfonyl)carbamoyl]-2-vinylcyclopropyl}-7-azadispiro[3.0.4.1]decane-8-carboxamide] | 3.5 |
| C=C[C@@H]1C[C@]1(NC(=O)[C@@H]1C[C@@]2(CN1C(=O)[C@@H](NC(=O)[C@@H](N1CCCC1=O)C(C)(C)C)C(C)(C)C)C(C)(C)C21CCC1)C(=O)NS(=O)(=O)N1CCCC1 [Compound 9, (5R,8S)-7-[(2S)-2-{[(2S)-3,3-dimethyl-2-(2-oxopyrrolidin-1-yl)butanoyl]amino}-3,3-dimethylbutanoyl]-10,10-dimethyl-N-{(1R,2S)-1-[(pyrrolidin-1-ylsulfonyl)carbamoyl]-2-vinylcyclopropyl}-7-azadispiro[3.0.4.1]decane-8-carboxamide] | 100 |
| C=C[C@@H]1C[C@]1(NC(=O)[C@@H]1C[C@@]2(CN1C(=O)[C@@H](NC(=O)[C@@H](NC(=O)c1cnccn1)C1CCCCC1)C(C)(C)C)C(C)(C)C21CCC1)C(=O)NS(=O)(=O)NC(C)(C)C [Compound 166, (5R,8S)-N-[(1R,2S)-1-{[(tert-butylamino)sulfonyl]carbamoyl}-2-vinylcyclopropyl]-7-[(2S)-2-({(2S)-2-cyclohexyl-2-[(pyrazin-2-ylcarbonyl)amino]acetyl}amino)-3,3-dimethylbutanoyl]-10,10-dimethyl-7-azadispiro[3.0.4.1]decane-8-carboxamide] | 10 |
| CC[C@@H]1C[C@]1(NC(=O)[C@@H]1C[C@@]2(CN1C(=O)[C@@H](NC(=O)[C@@H](NC(=O)[C@@H]1CCCN1CC)C1CCCCC1)C(C)(C)C)C(C)(C)C21CCC1)C(=O)NS(=O)(=O)N1CCCC1 [Compound 99, (5R,8S)-7-[(2S)-2-{[(2S)-2-cyclohexyl-2-({[(2S)-1-ethylpyrrolidin-2-yl]carbonyl}amino)acetyl]amino}-3,3-dimethylbutanoyl]-N-{(1R,2R)-2-ethyl-1-[(pyrrolidin-1-ylsulfonyl)carbamoyl]cyclopropyl}-10,10-dimethyl-7-azadispiro[3.0.4.1]decane-8-carboxamide] | 20 |
| C=C[C@@H]1C[C@]1(NC(=O)[C@@H]1C[C@@]2(CN1C(=O)[C@@H](NC(=O)[C@@H](NC(=O)C1CCN(C(C)=O)CC1)C1CCCCC1)C(C)(C)C)C(C)(C)C21CCC1)C(=O)NS(=O)(=O)N1CCCC1 [Compound 194, (5R,8S)-7-[(2S)-2-{[{[(1-acetylpiperidin-4-yl)carbonyl]amino}(cyclohexyl)acetyl]amino}-3,3-dimethylbutanoyl]-10,10-dimethyl-N-{(1R,2S)-1-[(pyrrolidin-1-ylsulfonyl)carbamoyl]-2-vinylcyclopropyl}-7-azadispiro[3.0.4.1]decane-8-carboxamide] | 10 |
| CCCN(C)S(=O)(=O)NC(=O)[C@@]1(NC(=O)[C@@H]2C[C@@]3(CN2C(=O)[C@@H](NC(=O)[C@@H](NC(=O)[C@@H]2CCCCN2C(C)C)C2CCCCC2)C(C)(C)C)C(C)(C)C32CCC2)C[C@H]1CC [Compound 142, (5R,8S)-7-[(2S)-2-{[(2S)-2-cyclohexyl-2-({[(2S)-1-isopropylpiperidin-2-yl]carbonyl}amino)acetyl]amino}-3,3-dimethylbutanoyl]-N-[(1R,2R)-2-ethyl-1-({[methyl(propyl)amino]sulfonyl}carbamoyl)cyclopropyl]-10,10-dimethyl-7-azadispiro[3.0.4.1]decane-8-carboxamide] | 10 |
| C=C[C@@H]1C[C@]1(NC(=O)[C@@H]1C[C@@]2(CN1C(=O)[C@@H](NC(=O)[C@@H](NC(=O)[C@@H]1SCCN1CC)C1CCCCC1)C(C)(C)C)C(C)(C)C21CCC1)C(=O)NS(=O)(=O)N1CCCC1 [Compound 144, (5R,8S)-7-[(2S)-2-{[(2S)-2-cyclohexyl-2-({[(2S)-3-ethyl-1,3-thiazolidin-2-yl]carbonyl}amino)acetyl]amino}-3,3-dimethylbutanoyl]-10,10-dimethyl-N-{(1R,2S)-1-[(pyrrolidin-1-ylsulfonyl)carbamoyl]-2-vinylcyclopropyl}-7-azadispiro[3.0.4.1]decane-8-carboxamide] | 9 |
| C=C[C@@H]1C[C@]1(NC(=O)[C@@H]1C[C@@]2(CN1C(=O)[C@@H](NC(=O)[C@@H](NC(=O)[C@@H]1CCCN1C(C)=O)C1CCCCC1)C(C)(C)C)C(C)(C)C21CCC1)C(=O)NS(=O)(=O)N1CCCC1 [Compound 187, (5R,8S)-7-[(2S)-2-{[({[(2S)-1-acetylpyrrolidin-2-yl]carbonyl}amino)(cyclohexyl)acetyl]amino}-3,3-dimethylbutanoyl]-10,10-dimethyl-N-{(1R,2S)-1-[(pyrrolidin-1-ylsulfonyl)carbamoyl]-2-vinylcyclopropyl}-7-azadispiro[3.0.4.1]decane-8-carboxamide] | 25 |
